Experiments:
[1] = test system: BT-474 breast cancer cell; assay: Sulphorhodamine-B (SRB) cell proliferation assay; type: cell-based; details: Homo sapiens, BT-474, 120 h; HER2-expressing cell; cultured for five days; SRB staining
Description: (§1) BT-474 breast cancer cell (purchased from ATCC) was used as a human HER2-expressing cell and MDA-MB-231 breast cancer cell (purchased from ATCC) was used as a HER2-nonexpressing cell. These cells were seeded into a 96-multiwell plate (BT-474: 3.0 x 10^4 cells/well, MDA-MB-231: 1.5 x 10^4 cells/well), and cultured overnight in a carbon dioxide gas incubator (5% CO2, 37°C). A 4-fold dilution series of a mitochondrial respiratory chain complex-inhibiting compound (complex I: rotenone) was added starting from a final concentration of 10 µmol/L in 10 steps, and further cultured for five days. At the end of culture, the broth containing rotenone was removed, the cells were washed with a phosphoric acid buffer, immobilized with 5% trichloroacetic acid solution, and added with 0.4% (W/V) sulphorhodamine-B (SRB) dye solution (dissolved in 1% acetic acid) for staining the cellular protein. Subsequently, the SRB dye solution was removed from the plate and the plate was washed with a 1% acetic acid solution. Then, 100 µL 10 mM Tris buffer solution was added for extraction and dye dissolution, and absorbance at an absorption wavelength of 550 nm was measured to determine the cellular quantity as a protein amount (Journal of National Cancer Institute. Vol. 82, pp. 1107-1112, 1990). […]

[2] = test system: MDA-MB-231 breast cancer cell; assay: Sulphorhodamine-B (SRB) cell proliferation assay; type: cell-based; details: Homo sapiens, MDA-MB-231, 120 h; HER2-nonexpressing cell; cultured for five days; SRB staining
Description: as §1

HER2 = assay: Western blotting of phosphorylated HER2 in BT-474 cells; type: cell-based, human
Description: (§2) Human HER2-expressing human breast cancer cell line BT-474 (purchased from American Tissue Culture Collection (ATCC)) was seeded into a 24-multiwell plate (BT-474: 1.2 x 10^5 cells/well), and cultured overnight in a carbon dioxide gas incubator (5% CO2, 37°C). A 4-fold dilution series of a mitochondrial respiratory chain complex inhibiting compound (complex I: rotenone, complex III: antimycin, complex V: oligomycin: Wako Pure Chemical Industries) was added starting from a final concentration of 1 µmol/L in 5 steps while continuing culture. After 2 hours, the broth was removed, and the cells were lysed with an SDS sample buffer (200 µL). Western blotting analysis was performed as follows. Specifically, this cell lysate (8 µL) was separated by an SDS-PAGE method (gel concentration: 7.5-15%) (Analytical Biochemistry, No. 166, pp. 368-379, 1987), and transferred to a nitrocellulose membrane (BioRad). Then, an antibody specific to phosphorylated HER2 (Cell signaling technology, Code# 2244), an anti-phosphorylated Akt antibody specific to downstream antiapoptotic signal transducing molecule Akt (Cell signaling technology, Code# 9271) and an anti-phosphorylated MAPK antibody specific to downstream proliferation signal transducing molecule MAPK (Cell signaling technology, Code# 9101) were used to detect the antibody with an ECL system (Amersham) to quantify the amount of phosphorylated protein by an image analysis.
(§3) Human HER2-expressing human cancer cell line BT-474 (purchased from ATCC) was seeded into a 24-multiwell plate (1.2 x 10^5 cells/well) and cultured overnight in a carbon dioxide gas incubator (20% O2, 5% CO2, 37°C). A 3-fold dilution series of metformin that activates AMPK (The Journal of Biological Chemistry, Vol. 279, No. 42, pp. 43940-43951, 2004) was added starting from a final concentration of 15 mmol/L in 5 steps while continuing culture. Two hours later, the broth was removed and the cells were lysed with an SDS sample buffer (200 µL). This cell lysate (8 µL) was separated by an SDS-PAGE method (gel concentration: 7.5-15%) (Analytical Biochemistry, No. 166, pp. 368-379, 1987). Then, western blotting analysis was performed in the same manner as in Example 1 to quantify phosphorylated HER2, phosphorylated Akt and phosphorylated MAPK.
(§4) Human HER2-expressing human breast cancer cell line BT-474 (purchased from American Tissue Culture Collection (ATCC)) was seeded into a 24-multiwell plate (BT-474: 1.2 x 10^5 cells/well), and cultured overnight in a carbon dioxide gas incubator (5% CO2, 37°C). Mitochondrial respiratory chain complex 1-inhibiting compound rotenone (Wako Pure Chemical Industries) was added in 5 steps at final concentrations of 1, 0.333, 0.111, 0.033 and 0.011 µmol/L while continuing culture. Two hours later, the broth was removed and the cells were lysed with an SDS sample buffer (200 µL). Then, this cell lysate was used to perform western blotting analysis. Specifically, this cell lysate (8 µL) was separated by an SDS-PAGE method (gel concentration: 7.5-15%) (Analytical Biochemistry, No. 166, pp. 368-379, 1987) and transferred to a nitrocellulose membrane (BioRad). Then, an antibody specific to phosphorylated HER2 (Cell signaling technology, Code# 2244), an AMPK antibody specific to AMPK (Cell signaling technology, Code# 2535) and an anti-phosphorylated AMPK antibody specific to phosphorylated AMPK (Cell signaling technology, Code# 2532) were used to detect the antibody by chemiluminescent detection with an ECL system (Amersham) to quantify an amount of phosphorylated protein with LAS-1000 plus image analysis device (FUJIFILM).
Human HER2-expressing human breast cancer cell line BT-474 (purchased from American Tissue Culture Collection (ATCC)) was seeded into a 24-multiwell plate (BT-474: 1.2 x 10^5 cells/well) and cultured overnight in a carbon dioxide gas incubator (5% CO2, 37°C). […]

EGFR = assay: Western blotting of phosphorylated EGFR in A431 cells; type: cell-based, human; details: Example 9, 4-fold dilution series from 1 µmol/L in 5 steps, 2 hours
Description: Human EGFR-expressing human epidermal cancer cell line A431 (purchased from American Tissue Culture Collection (ATCC)) was seeded into a 24-multiwell plate (A431:6x10^4 cells/well), and cultured overnight in a carbon dioxide gas incubator (5% CO2, 37°C). A 4-fold dilution series of a mitochondria complex-inhibiting compound (complex I: rotenone, Wako Pure Chemical Industries) was added in 5 steps starting from a final concentration of 1 µmol/L while continuing culture. The broth was removed 2 hours later, and cells were lysed with an SDS sample buffer (200 µL). Western blotting analysis was conducted as follows. Specifically, this cell lysate (8 µL) was separated by an SDS-PAGE method (gel concentration: 7.5-15%) (Analytical Biochemistry, No. 166, pp. 368-379, 1987) and transferred onto a nitrocellulose membrane (BioRad). Subsequently, an antibody specific to phosphorylated EGFR (Cell signaling technology, Code# 2232) was used to detect an antibody with an ECL system (Amersham) to quantify the amount of phosphorylated protein by an image analysis.

MAPK = assay: Western blotting of phosphorylated MAPK in BT-474 cells; type: cell-based, human; details: Example 2, 4-fold dilution series from 1 µmol/L in 5 steps, 2 hours
Description: as §2, §3

AMPK = assay: Western blotting of AMPK protein amount in BT-474 cells; type: cell-based, human; details: Example 6, 1, 0.333, 0.111, 0.033 and 0.011 µmol/L, two hours
Description: as §4

Akt = assay: Western blotting of phosphorylated Akt in BT-474 cells; type: cell-based, human; details: Example 2, 4-fold dilution series from 1 µmol/L in 5 steps, 2 hours
Description: as §2, §3

phosphorylated AMPK = assay: Western blotting of phosphorylated AMPK in BT-474 cells; type: cell-based, human; details: Example 6, 1, 0.333, 0.111, 0.033 and 0.011 µmol/L, two hours
Description: as §4

C=C(C)[C@H]1Cc2c(ccc3c2O[C@@H]2COc4cc(OC)c(OC)cc4[C@@H]2C3=O)O1 [rotenone]
IC50 [1]: 4 nM | IC50 [2]: 500 nM | HER2 phosphorylation (HER2; Example 2, 4-fold dilution series from 1 µmol/L in 5 steps, 2 hours): suppression of HER2 phosphorylation was confirmed | HER2 phosphorylation (HER2; Example 6, 1, 0.333, 0.111, 0.033 and 0.011 µmol/L, two hours): decreased dose-dependently | EGFR phosphorylation (EGFR): No suppression of EGFR phosphorylation was observed | MAPK phosphorylation (MAPK): suppressions of Akt and MAPK phosphorylations were also confirmed | amount of AMPK protein itself (AMPK): A quantitative change was not observed | Akt phosphorylation (Akt): suppressions of Akt and MAPK phosphorylations were also confirmed | amount of AMPK phosphorylation (phosphorylated AMPK): increased dose-dependently

— patent publication EP1902732A1, “PROPHYLACTIC/THERAPEUTIC AGENT FOR HER2-EXPRESSING CANCER” (Takeda Pharmaceutical Company Limited, priority 2005, dated 2006)
